Measured values published in ChEMBL document CHEMBL3217477, “Synthesis and biological evaluation of substituted - and -2,3-dihydrofuran naphthoquinones as potent anticandidal agents” (Medchemcomm, 2010).
Converted amounts (≈) assume the structure as drawn.

What was measured:
Candida dubliniensis [1] = test: Antifungal activity against Candida dubliniensis assessed as growth inhibition after 24 hrs by microbroth dilution method; type: functional
Candida parapsilosis [2] = test: Antifungal activity against Candida parapsilosis assessed as growth inhibition after 24 hrs by microbroth dilution method; type: functional; settings: Lodderomyces parapsilosis
Candida albicans [3] = test: Antifungal activity against Candida albicans assessed as growth inhibition after 24 hrs by microbroth dilution method; type: functional
Candida albicans [4] = test: Antifungal activity against Candida albicans ATCC 90028 assessed as growth inhibition after 24 hrs by microbroth dilution method; type: functional; settings: ATCC 90028, 24 h
[5] = Cytotoxicity against mouse NIH/3T3 cells assessed as dead cells at 12.5 ug/mL after 72 hrs by Alamar Blue assay relative to control; type: cell-based; settings: nih3t3, 72 h
Candida tropicalis [6] = test: Antifungal activity against Candida tropicalis assessed as growth inhibition after 24 hrs by microbroth dilution method; type: functional
Candida parapsilosis [7] = test: Antifungal activity against Candida parapsilosis assessed as growth inhibition at 250 ug/mL after 24 hrs by hole plate diffusion method; type: functional; settings: Lodderomyces parapsilosis, read-out: IZ
Pichia kudriavzevii [8] = test: Antifungal activity against Candida krusei assessed as growth inhibition after 24 hrs by microbroth dilution method; type: functional
[9] = Hemolytic activity in Swiss mouse erythrocytes at 50 ug/mL after 1 hr by spectrophotometric analysis relative to control; type: ADME, cell-based, Erythrocyte; settings: read-out: Activity
Candida albicans [10] = test: Antifungal activity against Candida albicans assessed as growth inhibition at 250 ug/mL after 24 hrs by hole plate diffusion method; type: functional; settings: read-out: IZ
Kluyveromyces marxianus [11] = test: Antifungal activity against Candida kefyr assessed as growth inhibition after 24 hrs by microbroth dilution method; type: functional
Candida tropicalis [12] = test: Antifungal activity against Candida tropicalis assessed as growth inhibition at 250 ug/mL after 24 hrs by hole plate diffusion method; type: functional; settings: read-out: IZ
Pichia kudriavzevii [13] = test: Antifungal activity against Candida krusei assessed as growth inhibition at 250 ug/mL after 24 hrs by hole plate diffusion method; type: functional; settings: read-out: IZ
Kluyveromyces marxianus [14] = test: Antifungal activity against Candida kefyr assessed as growth inhibition at 250 ug/mL after 24 hrs by hole plate diffusion method; type: functional; settings: read-out: IZ
Candida dubliniensis [15] = test: Antifungal activity against Candida dubliniensis assessed as growth inhibition at 250 ug/mL after 24 hrs by hole plate diffusion method; type: functional; settings: read-out: IZ

Compound	MIC (Candida dubliniensis [1]) [µM]	MIC (Candida parapsilosis [2]) [µM]	MIC (Candida albicans [3]) [µM]	MIC (Candida albicans [4]) [µM]	mortality [5] [%]	MIC (Candida tropicalis [6]) [µM]	zone of inhibition at 250 µg/mL (Candida parapsilosis [7]) [mm]	MIC (Pichia kudriavzevii [8]) [µM]	hemolysis at 1 h, 50 ug/mL [9] [%]	zone of inhibition at 250 µg/mL (Candida albicans [10]) [mm]	MIC (Kluyveromyces marxianus [11]) [µM]	zone of inhibition at 250 µg/mL (Candida tropicalis [12]) [mm]	zone of inhibition at 250 µg/mL (Pichia kudriavzevii [13]) [mm]	zone of inhibition at 250 µg/mL (Kluyveromyces marxianus [14]) [mm]	zone of inhibition at 250 µg/mL (Candida dubliniensis [15]) [mm]
O=C1C(=O)c2ccccc2C2=C1CC1(C=CC=C1)O2	6.55 (≈ 1.64 µg/mL)	13.1 (≈ 3.28 µg/mL)	6.55 (≈ 1.64 µg/mL)	13.1 (≈ 3.28 µg/mL)	8	3.27 (≈ 0.818 µg/mL)	6.14	13.1 (≈ 3.28 µg/mL)	-1.63	5.85	26.2 (≈ 6.56 µg/mL)	7.19	8.8	10.7	18.5
O=C1C2=C(OC3(C=CC=C3)C2)C(=O)c2ccccc21	3.27 (≈ 0.818 µg/mL)	13.1 (≈ 3.28 µg/mL)	2.09 (≈ 0.523 µg/mL)	13.1 (≈ 3.28 µg/mL)	9	3.27 (≈ 0.818 µg/mL)	0	12.8 (≈ 3.22 µg/mL)	5.92	16.6	52.5 (≈ 13.1 µg/mL)	7.8	10.8	9.3	16.6
CC1(C)CC2=C(O1)C(=O)c1ccccc1C2=O	13.7 (≈ 3.12 µg/mL)	110 (≈ 25 µg/mL)	0.54 (≈ 0.123 µg/mL)	54.8 (≈ 12.5 µg/mL)	20	3.42 (≈ 0.781 µg/mL)	9.29	13.4 (≈ 3.06 µg/mL)	2.1	21.3	27.4 (≈ 6.25 µg/mL)	5.63	14.6	18.4	15.2
O=C1C2=C(OC(c3ccc(Cl)cc3)C2)C(=O)c2ccccc21 (centres undefined)	40.2 (≈ 12.5 µg/mL)	40.2 (≈ 12.5 µg/mL)	10.1 (≈ 3.12 µg/mL)	80.5 (≈ 25 µg/mL)	0	40.2 (≈ 12.5 µg/mL)	0	80.5 (≈ 25 µg/mL)	1.16	1.5	80.5 (≈ 25 µg/mL)	2.49	6.14	5.27	0
CC1(C)CC2=C(O1)c1ccccc1C(=O)C2=O [NOR-BETA-LAPACHONE]	6.84 (≈ 1.56 µg/mL)	27.4 (≈ 6.25 µg/mL)	54.8 (≈ 12.5 µg/mL)	110 (≈ 25 µg/mL)	11	54.8 (≈ 12.5 µg/mL)	7.41	110 (≈ 25 µg/mL)	-2.4	1.64	110 (≈ 25 µg/mL)	4.78	9.01	8.27	0.1
COc1cccc2c1C(=O)c1c(O)c3c(c(O)c1C2=O)C[C@@](O)(C(=O)CO)C[C@@H]3O[C@H]1C[C@H](N)[C@H](O)[C@H](C)O1 [DOXORUBICIN]	–	–	–	–	36	–	–	–	–	–	–	–	–	–	–
O=C1C2=C(OC(c3ccc(F)cc3)C2)C(=O)c2ccccc21 (centres undefined)	42.5 (≈ 12.5 µg/mL)	42.5 (≈ 12.5 µg/mL)	21.2 (≈ 6.25 µg/mL)	85 (≈ 25 µg/mL)	0	42.5 (≈ 12.5 µg/mL)	3.86	85 (≈ 25 µg/mL)	-1.95	10.3	85 (≈ 25 µg/mL)	3.31	9.12	7.28	2.66
Cc1ccc(C2CC3=C(O2)C(=O)c2ccccc2C3=O)c(C)c1 (centres undefined)	41.1 (≈ 12.5 µg/mL)	82.1 (≈ 25 µg/mL)	41.1 (≈ 12.5 µg/mL)	82.1 (≈ 25 µg/mL)	0	41.1 (≈ 12.5 µg/mL)	0	82.1 (≈ 25 µg/mL)	-0.217	1.38	82.1 (≈ 25 µg/mL)	6.42	9.87	0	2.02
CCC(C)n1ncn(-c2ccc(N3CCN(c4ccc(OCC5COC(Cn6cncn6)(c6ccc(Cl)cc6Cl)O5)cc4)CC3)cc2)c1=O (centres undefined) [ITRACONAZOLE]	0.02 (≈ 0.0141 µg/mL)	0.02 (≈ 0.0141 µg/mL)	4.42 (≈ 3.12 µg/mL)	0.17 (≈ 0.12 µg/mL)	–	0.17 (≈ 0.12 µg/mL)	26	0.7 (≈ 0.494 µg/mL)	–	23.1	0.08 (≈ 0.0565 µg/mL)	23.6	30.3	30.9	19.4
